The text below walks through data of patent publication US20100041896A1, “Macrolide compound with bis-oxazoly” (priority 2008, published 2010).

≈ marks a conversion by molar mass, not a printed value.

For one series, the system named is K562 cells. In words: anti-tumor in vitro experiment, K562 cell growth inhibition (trypan blue counting). Format: cell-based. To be noted: Homo sapiens, 48 hours at 37° C., trypan blue living-cell count, read-out: median inhibitory concentration IC50. The protocol: Implementation case 3: anti-tumor in vitro experiments
The cultivation condition for K562 cells (human chronic myeloid leukemia leap cell lines) is: the volume fraction of 10 percent of the calf serum RPMI1640, penicillin (100 IU/ml) and streptomycin (100 μg/ml), at 37° C., 5% CO2 incubation box for cultivation. Take the logarithm growth period cells used for the inhibition rate experiments, with the concentration of cells inoculated 2.5×10^5/ml. In the 96-pore cultivation board, K562 cells are vaccinated with the inoculation amount of about 5×10^4/pore, 200 μl each pore. The drug is dissolved in dimethyl sulfoxide (DMSO), making the storage fluid of 10 mg/ml. Four groups are set up in this experiment, adding different concentrations of drugs respectively, so that the final concentrations are respectively 0.1, 1, 10, 100 μg/ml. There is no drug added for the reference control group, and three parallel holes are set up for each group, cultivating at 37° C. for 48 hours. Taking 0.4 percent trypan blue liquid (take 4 g trypan blue and put it into 100 ml PBS, making four percent trypan blue raw fluid, filtrated and disinfected, stored in 4° C. refrigerator, ready to use. Concentration is of 0.4 percent) and the cell suspension fluid, 50 μl respectively, mixing, and then take appropriate mixed fluid to fill in cell counting board, counting the four big grid non-coloring living cells. […]

Series [1] in a line: Solubility (physical and chemical properties). Format: physicochemical.

On to `C/C1=C/[C@H](C)C[C@H](C)[C@H](Cc2cnco2)OC(=O)/C(C)=C\[C@H](C)C[C@H](C)C(Cc2cnco2)OC1=O` (stereo partly shown) [FW-04-806], for which the IC50 in the series on K562 cells is 12.4 µg/mL (≈ 24.8 µM). Moreover, the Solubility entry is “soluble” in series [1] (in methyl alcohol, ethyl acetate and dimethylsulfoxide); “nearly insoluble” in series [1] (in n-hexane or petroleum ether); “insoluble” in series [1] (in water).
